Read-outs that look alike come from different tables or passages of the source.
Key:
ROCK1 = biological target: T1, ROCK1 (Homo sapiens, UniProt Q13464); test: Rho kinase inhibition assay (IMAP fluorescence polarization), ROCK1; type: biochemical;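 note: kinase reaction run 60 min at room temperature, then phosphorylated substrate captured on IMAP beads for 30 min, with fluorescence polarization read in mP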
T1 construct: purchased Upstate/Chemicon 14-601
Description: (§1) Following the pre-incubation, 10 μM ATP was added to initiate the reaction. After 60 minutes at room temperature, Molecular Devices IMAP™ binding solution was added to bind phosphorylated substrate. After 30 minutes of incubation in the presence of the IMAP™ beads, the fluorescence polarization was read and the ratio was reported as mP. IC50 values for compounds and EC50 values for ATP were calculated using the Prism software from Graphpad.

ROCK2 = biological target: T2, ROCK2 (Homo sapiens, UniProt O75116); test: Rho kinase inhibition assay (IMAP fluorescence polarization), ROCK2; type: biochemical;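 note: kinase reaction started with 10 µM ATP and run 60 min at room temperature, then phosphorylated substrate captured on IMAP beads for 30 min and fluorescence polarization read in mP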
T2 construct: purchased Upstate/Chemicon 14-451
T2 sequence (O75116 11-552 limits assumed): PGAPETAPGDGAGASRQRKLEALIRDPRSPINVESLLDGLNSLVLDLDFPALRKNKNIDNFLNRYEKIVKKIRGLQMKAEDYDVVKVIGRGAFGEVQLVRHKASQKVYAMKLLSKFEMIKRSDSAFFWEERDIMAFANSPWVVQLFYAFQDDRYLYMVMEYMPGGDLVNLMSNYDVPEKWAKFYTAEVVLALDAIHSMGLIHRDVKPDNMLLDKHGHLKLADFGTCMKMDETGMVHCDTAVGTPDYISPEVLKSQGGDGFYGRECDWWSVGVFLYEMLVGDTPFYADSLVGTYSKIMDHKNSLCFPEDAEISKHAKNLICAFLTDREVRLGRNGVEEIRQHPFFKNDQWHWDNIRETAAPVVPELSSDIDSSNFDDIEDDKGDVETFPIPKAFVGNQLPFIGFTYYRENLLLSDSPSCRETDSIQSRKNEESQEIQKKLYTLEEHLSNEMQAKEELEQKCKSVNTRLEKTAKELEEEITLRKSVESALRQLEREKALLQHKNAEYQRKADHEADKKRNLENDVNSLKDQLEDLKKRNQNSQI
Description: as §1

[1] = 10 μM ATP, read-out: ROCK2 Ki, Avg

T1 sequence (Q13464 17-535 limits assumed): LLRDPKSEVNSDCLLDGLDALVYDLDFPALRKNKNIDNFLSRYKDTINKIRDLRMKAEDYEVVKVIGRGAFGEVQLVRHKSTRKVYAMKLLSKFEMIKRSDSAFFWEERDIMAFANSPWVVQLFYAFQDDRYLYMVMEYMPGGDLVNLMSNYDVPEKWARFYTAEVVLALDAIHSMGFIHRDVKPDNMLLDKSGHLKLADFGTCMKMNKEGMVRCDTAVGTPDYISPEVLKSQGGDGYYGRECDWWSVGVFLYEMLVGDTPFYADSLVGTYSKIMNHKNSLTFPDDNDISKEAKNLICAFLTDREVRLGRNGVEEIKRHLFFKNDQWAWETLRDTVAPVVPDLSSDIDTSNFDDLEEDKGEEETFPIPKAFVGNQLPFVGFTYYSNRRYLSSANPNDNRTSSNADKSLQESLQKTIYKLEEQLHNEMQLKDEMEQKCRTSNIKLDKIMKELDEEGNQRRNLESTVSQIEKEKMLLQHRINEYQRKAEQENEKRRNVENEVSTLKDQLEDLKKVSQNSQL

SMILES	Ki (ROCK1; Avg, 10 μM ATP) [nM]	Ki (ROCK2; [1]) [nM]	Ki (ROCK1; average Ki) [nM]	Ki (ROCK2; average Ki, read-out: ROCK2 Ki) [nM]
c1cc(N[C@@H]2CCN(Cc3cnccn3)C2)c2ccncc2c1 [Compound 2.086, (R)-N-(1-(pyrazin-2-ylmethyl)pyrrolidin-3-yl)isoquinolin-5-amine]	1250	358	–	–
CS(=O)(=O)Nc1cccc(CN2CC[C@H](Nc3ccc4[nH]ncc4c3)C2)c1 [Compound 1.095, (S)-N-(3-((3-(1H-indazol-5-ylamino)pyrrolidin-1-yl)methyl)phenyl)methanesulfonamide]	275	49.5	–	–
FC(F)(F)c1cccc(CN2CC[C@@H](Nc3ccc4[nH]ncc4c3)C2)c1 [Compound 1.243, (R)-N-(1-(3-(trifluoromethyl)benzyl)pyrrolidin-3-yl)-1H-indazol-5-amine]	219	84.3	–	–
c1cnc(CN2CC[C@@H](Nc3cccc4cnccc34)C2)nc1 [Compound 2.085, (R)-N-(1-(pyrimidin-2-ylmethyl)pyrrolidin-3-yl)isoquinolin-5-amine]	2390	812	–	–
O=C(Nc1cccc(CN2CCC[C@@H](Nc3ccc4[nH]ncc4c3)C2)c1)N1CCCC1 [Compound 1.266, (R)-N-(3-((3-(1H-indazol-5-ylamino)piperidin-1-yl)methyl)phenyl)pyrrolidine-1-carboxamide]	53.8	17.1	–	–
COc1c(CN2CCC[C@H](Nc3ccc4[nH]ncc4c3)C2)cccc1NS(C)(=O)=O [Compound 1.280, (S)-N-(3-((3-(1H-indazol-5-ylamino)piperidin-1-yl)methyl)-2-methoxyphenyl)methanesulfonamide]	746	38	–	–
c1cc(N2CCCC2)ccc1CN1CCC[C@@H](Nc2ccc3[nH]ncc3c2)C1 [Compound 1.248, (R)-N-(1-(4-(pyrrolidin-1-yl)benzyl)piperidin-3-yl)-1H-indazol-5-amine]	2350	891	–	–
CC1(C)OC[C@H](COc2cccc(CN3CCC[C@@H](Nc4ccc5[nH]ncc5c4)C3)c2)O1 [Compound 1.222, N-((R)-1-(3-(((S)-2,2-dimethyl-1,3-dioxolan-4-yl)methoxy)benzyl)piperidin-3-yl)-1H-indazol-5-amine]	229	75.5	–	–
Cc1ccc(CN2CCC[C@@H](Nc3ccc4[nH]ncc4c3)C2)cc1OCC(N)=O [Compound 1.281]	71.8	7.4	71.8	7.4
CC(C)(C)OC(=O)COc1cccc(CN2CCC[C@H](Nc3ccc4[nH]ncc4c3)C2)c1 [Compound 1.187, (S)-tert-butyl 2-(3-((3-(1H-indazol-5-ylamino)piperidin-1-yl)methyl)phenoxy)acetate]	296	17.3	–	–
CC(C)(C)OC(=O)NCc1ccc(CN2CCC[C@H](Nc3ccc4[nH]ncc4c3)C2)cc1 [Compound 1.199, (S)-tert-butyl 4-((3-(1H-indazol-5-ylamino)piperidin-1-yl)methyl)benzylcarbamate]	1860	213	–	–
Clc1cccc(CN2CCC[C@@H](Nc3ccc4[nH]ncc4c3)C2)c1 [Compound 1.191, (R)-N-(1-(3-chlorobenzyl)piperidin-3-yl)-1H-indazol-5-amine]	147	33.4	–	–
CN(c1cccc(CN2CCC[C@@H](Nc3ccc4[nH]ncc4c3)C2)c1)S(C)(=O)=O [Compound 1.207, (R)-N-(3-((3-(1H-indazol-5-ylamino)piperidin-1-yl)methyl)phenyl)-N-methylmethanesulfonamide]	516	43.7	–	–
c1cc(N[C@@H]2CCN(Cc3nc4ccccc4[nH]3)C2)c2ccncc2c1 [Compound 2.074, (R)-N-(1-((1H-benzo[d]imidazol-2-yl)methyl)pyrrolidin-3-yl)isoquinolin-5-amine]	133	36.4	–	–
OCCOc1cccc(CN2CCC[C@H](Nc3ccc4[nH]ncc4c3)C2)c1 [Compound 1.090, (S)-2-(3-((3-(1H-indazol-5-ylamino)piperidin-1-yl)methyl)phenoxy)ethanol]	281	24.9	–	–
OCCCOc1cccc(CN2CCC[C@@H](Nc3ccc4[nH]ncc4c3)C2)c1 [Compound 1.231, (R)-3-(3-((3-(1H-indazol-5-ylamino)piperidin-1-yl)methyl)phenoxy)propan-1-ol]	305	60.3	–	–
Cc1ccc(CN2CC[C@@H](Nc3cccc4c(=O)[nH]ccc34)C2)cc1OCCO [Compound 2.093, (R)-5-(1-(3-(2-hydroxyethoxy)-4-methylbenzyl)pyrrolidin-3-ylamino)isoquinolin-1(2H)-one]	576	128	–	–
CC(CN1CCC[C@@H](Nc2ccc3[nH]ncc3c2)C1)c1ccccc1 (stereo partly drawn) [Compound 1.251, N-((3R)-1-(2-phenylpropyl)piperidin-3-yl)-1H-indazol-5-amine]	207	49.2	–	–
CNC(=O)Nc1cccc(CN2CCC[C@@H](Nc3ccc4[nH]ncc4c3)C2)c1 [Compound 1.265, (R)-1-(3-((3-(1H-indazol-5-ylamino)piperidin-1-yl)methyl)phenyl)-3-methylurea]	162	21.6	–	–

SMILES	Ki (ROCK1; Avg, 10 μM ATP) [nM]	Ki (ROCK2; [1]) [nM]	Ki (ROCK1; average Ki) [nM]	Ki (ROCK2; average Ki, read-out: ROCK2 Ki) [nM]
OCCn1cc(CN2CC[C@@H](Nc3cccc4cnccc34)C2)c2ccccc21 [Compound 2.072, (R)-2-(3-((3-(isoquinolin-5-ylamino)pyrrolidin-1-yl)methyl)-1H-indol-1-yl)ethanol]	7.5	4.4	7.5	4.4
CCN(CC)C(=O)Nc1cccc(CN2CCC[C@@H](Nc3ccc4[nH]ncc4c3)C2)c1 [Compound 1.267, (R)-3-(3-((3-(1H-indazol-5-ylamino)piperidin-1-yl)methyl)phenyl)-1,1-diethylurea]	98.8	23.9	–	–
Cc1ccc(CN2CC[C@@H](Nc3cccc4cnccc34)C2)cc1OCC(=O)O [Compound 2.073, (R)-2-(5-((3-(isoquinolin-5-ylamino)pyrrolidin-1-yl)methyl)-2-methylphenoxy)acetic acid]	12.7	4.2	12.7	4.2
Cc1ccc(CN2CC[C@@H](Nc3cccc4cnccc34)C2)cc1OCC(=O)OC(C)(C)C [Compound 2.071, (R)-tert-butyl 2-(5-((3-(isoquinolin-5-ylamino)pyrrolidin-1-yl)methyl)-2-methylphenoxy)acetate]	21.2	11.9	–	–
CCOc1cccc(CN2CCC[C@@H](Nc3ccc4[nH]ncc4c3)C2)c1 [Compound 1.203, (R)-N-(1-(3-ethoxybenzyl)piperidin-3-yl)-1H-indazol-5-amine]	329	41.6	–	–
COc1ccc(CN2CC[C@@H](Nc3ccc4[nH]ncc4c3)C2)cc1 [Compound 1.245, (R)-N-(1-(4-methoxybenzyl)pyrrolidin-3-yl)-1H-indazol-5-amine]	199	49.5	–	–
Brc1cccc(CN2CCC[C@@H](Nc3ccc4[nH]ncc4c3)C2)c1 [Compound 1.210, (R)-N-(1-(3-bromobenzyl)piperidin-3-yl)-1H-indazol-5-amine]	95.1	25.5	–	–
OCCCOc1cccc(CN2CCC[C@H](Nc3ccc4[nH]ncc4c3)C2)c1 [Compound 1.230, (S)-3-(3-((3-(1H-indazol-5-ylamino)piperidin-1-yl)methyl)phenoxy)propan-1-ol]	346	35.3	–	–
c1csc(CN2CC[C@@H](Nc3cccc4cnccc34)C2)c1 [Compound 2.090, (R)-N-(1-(thiophen-2-ylmethyl)pyrrolidin-3-yl)isoquinolin-5-amine]	53.3	19.5	–	–
Cc1ccc(CN2CC[C@@H](Nc3cccc4cnccc34)C2)cc1OCC(N)=O [Compound 2.099, (R)-2-(5-((3-(isoquinolin-5-ylamino)pyrrolidin-1-yl)methyl)-2-methylphenoxy)acetamide]	15	3.8	15	3.8
CC1(C)OC[C@H](COc2cccc(CN3CCC[C@H](Nc4ccc5[nH]ncc5c4)C3)c2)O1 [Compound 1.214, N-((S)-1-(3-(((S)-2,2-dimethyl-1,3-dioxolan-4-yl)methoxy)benzyl)piperidin-3-yl)-1H-indazol-5-amine]	546	143	–	–
C[C@@H](O)COc1cccc(CN2CCC[C@@H](Nc3ccc4[nH]ncc4c3)C2)c1 [Compound 1.116, (R)-1-(3-(((R)-3-(1H-indazol-5-ylamino)piperidin-1-yl)methyl)phenoxy)propan-2-ol]	258	48.9	–	–
CSc1ccc(CN2CCC[C@H](Nc3cccc4cnccc34)C2)cc1 [Compound 2.051, (S)-N-(1-(4-(methylthio)benzyl)piperidin-3-yl)isoquinolin-5-amine]	1440	1180	–	–
Cn1c(CN2CC[C@@H](Nc3cccc4cnccc34)C2)nc2ccccc21 [Compound 2.075, (R)-N-(1-((1-methyl-1H-benzo[d]imidazol-2-yl)methyl)pyrrolidin-3-yl)isoquinolin-5-amine]	123	21.7	–	–
COc1ccc(CN2CCC[C@H](Nc3ccc4[nH]ncc4c3)C2)cc1NS(C)(=O)=O [Compound 1.234, (S)-N-(5-((3-(1H-indazol-5-ylamino)piperidin-1-yl)methyl)-2-methoxyphenyl)methanesulfonamide]	1740	166	–	–
c1cn(-c2ccc(CN3CCC[C@H](Nc4ccc5[nH]ncc5c4)C3)cc2)cn1 [Compound 1.255]	3560	359	–	–
OCCOc1ccc(CN2CCC[C@H](Nc3ccc4[nH]ncc4c3)C2)cc1 [Compound 1.228]	1880	140	–	–
c1ccc(CN2CCC[C@H](Nc3cccc4cnccc34)C2)cc1 [Compound 2.050, (S)-N-(1-benzylpiperidin-3-yl)isoquinolin-5-amine]	368	251	–	–
CC(=O)NCCOc1cccc(CN2CCC[C@H](Nc3ccc4[nH]ncc4c3)C2)c1 [Compound 1.218, (S)-N-(2-(3-((3-(1H-indazol-5-ylamino)piperidin-1-yl)methyl)phenoxy)ethyl)acetamide]	402	30.7	–	–
